In publication PMC5423977, “Safety, pharmacokinetics, and pharmacodynamics of BMS-986142, a novel reversible BTK inhibitor, in healthy participants” (European Journal of Clinical Pharmacology, 2017):

Assay: Safety and tolerability (adverse events), Study 1 MAD in healthy participants
Format: in vivo, human
[1] = Study 1 MAD group, BMS-986142-treated
[2] = Study 1 MAD, all BMS-986142 doses, n = 24

Question: What does the source list for `Cc1c(-c2c(F)cc(C(N)=O)c3[nH]c4c(c23)CC[C@H](C(C)(C)O)C4)cccc1-n1c(=O)c2cccc(F)c2n(C)c1=O` [BMS-986142, 6-fluoro-5-(R)-(3-(S)-(8-fluoro-1-methyl-2,4-dioxo-1,2-dihydroquinazolin-3(4H)-yl)-2-methylphenyl)-2-(S)-(2-hydroxypropan-2-yl)-2,3,4,9-tetrahydro-1H-carbazole-8-carboxamide]?
Answer: AE SOC: Ear and labyrinth disorders (MAD 25 mg QD, n = 6): 0 n (%); AE SOC: Eye disorders (MAD 25 mg QD, n = 6): 1 (16.7) n (%); AE SOC: Gastrointestinal Disorders (MAD 25 mg QD, n = 6): 0 n (%); AE SOC: Infections and infestations (MAD 25 mg QD, n = 6): 0 n (%); AE SOC: Injury, poisoning and procedural complications (MAD 25 mg QD, n = 6): 1 (16.7) n (%); AE SOC: Investigations (MAD 25 mg QD, n = 6): 0 n (%); AE SOC: Musculoskeletal and connective tissue disorders (MAD 25 mg QD, n = 6): 0 n (%); AE SOC: Nervous system disorders (MAD 25 mg QD, n = 6): 0 n (%); AE SOC: Psychiatric disorders (MAD 25 mg QD, n = 6): 0 n (%); AE SOC: Respiratory, thoracic and mediastinal disorders (MAD 25 mg QD, n = 6): 1 (16.7) n (%); AE SOC: Skin and subcutaneous tissue disorders (MAD 25 mg QD, n = 6): 0 n (%); AE: Abdominal pain (MAD 25 mg QD, n = 6): 0 n (%); AE: Back pain (MAD 25 mg QD, n = 6): 0 n (%); AE: Blood creatinine phosphokinase increased (MAD 25 mg QD, n = 6): 0 n (%); AE: Cerumen impaction (MAD 25 mg QD, n = 6): 0 n (%); AE: Cough (MAD 25 mg QD, n = 6): 1 (16.7) n (%); AE: Diarrhoea (MAD 25 mg QD, n = 6): 0 n (%); AE: Eye pain (MAD 25 mg QD, n = 6): 1 (16.7) n (%); AE: Haemoptysis (MAD 25 mg QD, n = 6): 0 n (%); AE: Headache (MAD 25 mg QD, n = 6): 0 n (%); AE: Psychotic disorder (MAD 25 mg QD, n = 6): 0 n (%); AE: Rash (MAD 25 mg QD, n = 6): 0 n (%); AE: Somnolence (MAD 25 mg QD, n = 6): 0 n (%); AE: Syncope (MAD 25 mg QD, n = 6): 0 n (%); AE: Thermal burn (MAD 25 mg QD, n = 6): 1 (16.7) n (%); AE: Throat irritation (MAD 25 mg QD, n = 6): 0 n (%); AE: Upper respiratory tract infection (MAD 25 mg QD, n = 6): 0 n (%); Total subjects with an event (MAD 25 mg QD, n = 6): 2 (33.3) n (%); AE SOC: Ear and labyrinth disorders (MAD 75 mg QD, n = 6): 1 (16.7) n (%); AE SOC: Eye disorders (MAD 75 mg QD, n = 6): 0 n (%); AE SOC: Gastrointestinal Disorders (MAD 75 mg QD, n = 6): 2 (33.3) n (%); AE SOC: Infections and infestations (MAD 75 mg QD, n = 6): 0 n (%); AE SOC: Injury, poisoning and procedural complications (MAD 75 mg QD, n = 6): 0 n (%); AE SOC: Investigations (MAD 75 mg QD, n = 6): 0 n (%); AE SOC: Musculoskeletal and connective tissue disorders (MAD 75 mg QD, n = 6): 0 n (%); AE SOC: Nervous system disorders (MAD 75 mg QD, n = 6): 1 (16.7) n (%); AE SOC: Psychiatric disorders (MAD 75 mg QD, n = 6): 1 (16.7) n (%); AE SOC: Respiratory, thoracic and mediastinal disorders (MAD 75 mg QD, n = 6): 1 (16.7) n (%); AE SOC: Skin and subcutaneous tissue disorders (MAD 75 mg QD, n = 6): 0 n (%); AE: Abdominal pain (MAD 75 mg QD, n = 6): 1 (16.7) n (%); AE: Back pain (MAD 75 mg QD, n = 6): 0 n (%); AE: Blood creatinine phosphokinase increased (MAD 75 mg QD, n = 6): 0 n (%); AE: Cerumen impaction (MAD 75 mg QD, n = 6): 1 (16.7) n (%); AE: Cough (MAD 75 mg QD, n = 6): 0 n (%); AE: Diarrhoea (MAD 75 mg QD, n = 6): 1 (16.7) n (%); AE: Eye pain (MAD 75 mg QD, n = 6): 0 n (%); AE: Haemoptysis (MAD 75 mg QD, n = 6): 1 (16.7) n (%); AE: Headache (MAD 75 mg QD, n = 6): 1 (16.7) n (%); AE: Psychotic disorder (MAD 75 mg QD, n = 6): 1 (16.7) n (%); AE: Rash (MAD 75 mg QD, n = 6): 0 n (%); AE: Somnolence (MAD 75 mg QD, n = 6): 0 n (%); AE: Syncope (MAD 75 mg QD, n = 6): 0 n (%); AE: Thermal burn (MAD 75 mg QD, n = 6): 0 n (%); AE: Throat irritation (MAD 75 mg QD, n = 6): 1 (16.7) n (%); AE: Upper respiratory tract infection (MAD 75 mg QD, n = 6): 0 n (%); Total subjects with an event (MAD 75 mg QD, n = 6): 4 (66.7) n (%); AE SOC: Ear and labyrinth disorders (MAD 200 mg QD, n = 6): 0 n (%); AE SOC: Eye disorders (MAD 200 mg QD, n = 6): 0 n (%); AE SOC: Gastrointestinal Disorders (MAD 200 mg QD, n = 6): 0 n (%); AE SOC: Infections and infestations (MAD 200 mg QD, n = 6): 1 (16.7) n (%); AE SOC: Injury, poisoning and procedural complications (MAD 200 mg QD, n = 6): 0 n (%); AE SOC: Investigations (MAD 200 mg QD, n = 6): 0 n (%); AE SOC: Musculoskeletal and connective tissue disorders (MAD 200 mg QD, n = 6): 1 (16.7) n (%); AE SOC: Nervous system disorders (MAD 200 mg QD, n = 6): 0 n (%); AE SOC: Psychiatric disorders (MAD 200 mg QD, n = 6): 0 n (%); AE SOC: Respiratory, thoracic and mediastinal disorders (MAD 200 mg QD, n = 6): 0 n (%); AE SOC: Skin and subcutaneous tissue disorders (MAD 200 mg QD, n = 6): 0 n (%); AE: Abdominal pain (MAD 200 mg QD, n = 6): 0 n (%); AE: Back pain (MAD 200 mg QD, n = 6): 1 (16.7) n (%); AE: Blood creatinine phosphokinase increased (MAD 200 mg QD, n = 6): 0 n (%); AE: Cerumen impaction (MAD 200 mg QD, n = 6): 0 n (%); AE: Cough (MAD 200 mg QD, n = 6): 0 n (%); AE: Diarrhoea (MAD 200 mg QD, n = 6): 0 n (%); AE: Eye pain (MAD 200 mg QD, n = 6): 0 n (%); AE: Haemoptysis (MAD 200 mg QD, n = 6): 0 n (%); AE: Headache (MAD 200 mg QD, n = 6): 0 n (%); AE: Psychotic disorder (MAD 200 mg QD, n = 6): 0 n (%); AE: Rash (MAD 200 mg QD, n = 6): 0 n (%); AE: Somnolence (MAD 200 mg QD, n = 6): 0 n (%); AE: Syncope (MAD 200 mg QD, n = 6): 0 n (%); AE: Thermal burn (MAD 200 mg QD, n = 6): 0 n (%); AE: Throat irritation (MAD 200 mg QD, n = 6): 0 n (%); AE: Upper respiratory tract infection (MAD 200 mg QD, n = 6): 1 (16.7) n (%); Total subjects with an event (MAD 200 mg QD, n = 6): 1 (16.7) n (%); AE SOC: Ear and labyrinth disorders (MAD 350 mg QD, n = 6): 0 n (%); AE SOC: Eye disorders (MAD 350 mg QD, n = 6): 0 n (%); AE SOC: Gastrointestinal Disorders (MAD 350 mg QD, n = 6): 0 n (%); AE SOC: Infections and infestations (MAD 350 mg QD, n = 6): 0 n (%); AE SOC: Injury, poisoning and procedural complications (MAD 350 mg QD, n = 6): 0 n (%); AE SOC: Investigations (MAD 350 mg QD, n = 6): 0 n (%); AE SOC: Musculoskeletal and connective tissue disorders (MAD 350 mg QD, n = 6): 0 n (%); AE SOC: Nervous system disorders (MAD 350 mg QD, n = 6): 0 n (%); AE SOC: Psychiatric disorders (MAD 350 mg QD, n = 6): 0 n (%); AE SOC: Respiratory, thoracic and mediastinal disorders (MAD 350 mg QD, n = 6): 0 n (%); AE SOC: Skin and subcutaneous tissue disorders (MAD 350 mg QD, n = 6): 1 (16.7) n (%); AE: Abdominal pain (MAD 350 mg QD, n = 6): 0 n (%); AE: Back pain (MAD 350 mg QD, n = 6): 0 n (%); AE: Blood creatinine phosphokinase increased (MAD 350 mg QD, n = 6): 0 n (%); AE: Cerumen impaction (MAD 350 mg QD, n = 6): 0 n (%); AE: Cough (MAD 350 mg QD, n = 6): 0 n (%); AE: Diarrhoea (MAD 350 mg QD, n = 6): 0 n (%); AE: Eye pain (MAD 350 mg QD, n = 6): 0 n (%); AE: Haemoptysis (MAD 350 mg QD, n = 6): 0 n (%); AE: Headache (MAD 350 mg QD, n = 6): 0 n (%); AE: Psychotic disorder (MAD 350 mg QD, n = 6): 0 n (%); AE: Rash (MAD 350 mg QD, n = 6): 1 (16.7) n (%); AE: Somnolence (MAD 350 mg QD, n = 6): 0 n (%); AE: Syncope (MAD 350 mg QD, n = 6): 0 n (%); AE: Thermal burn (MAD 350 mg QD, n = 6): 0 n (%); AE: Throat irritation (MAD 350 mg QD, n = 6): 0 n (%); AE: Upper respiratory tract infection (MAD 350 mg QD, n = 6): 0 n (%); Total subjects with an event (MAD 350 mg QD, n = 6): 1 (16.7) n (%); AE SOC: Ear and labyrinth disorders (MAD any dose, n = 24): 1 (4.2) n (%); AE SOC: Eye disorders (MAD any dose, n = 24): 1 (4.2) n (%); AE SOC: Gastrointestinal Disorders (MAD any dose, n = 24): 2 (8.3) n (%); AE SOC: Infections and infestations (MAD any dose, n = 24): 1 (4.2) n (%); AE SOC: Injury, poisoning and procedural complications (MAD any dose, n = 24): 1 (4.2) n (%); AE SOC: Investigations (MAD any dose, n = 24): 0 n (%); AE SOC: Musculoskeletal and connective tissue disorders (MAD any dose, n = 24): 1 (4.2) n (%); AE SOC: Nervous system disorders (MAD any dose, n = 24): 1 (4.2) n (%); AE SOC: Psychiatric disorders (MAD any dose, n = 24): 1 (4.2) n (%); AE SOC: Respiratory, thoracic and mediastinal disorders (MAD any dose, n = 24): 2 (8.3) n (%); AE SOC: Skin and subcutaneous tissue disorders (MAD any dose, n = 24): 1 (4.2) n (%); AE: Abdominal pain (MAD any dose, n = 24): 1 (4.2) n (%); AE: Back pain (MAD any dose, n = 24): 1 (4.2) n (%); AE: Blood creatinine phosphokinase increased (MAD any dose, n = 24): 0 n (%); AE: Cerumen impaction (MAD any dose, n = 24): 1 (4.2) n (%); AE: Cough (MAD any dose, n = 24): 1 (4.2) n (%); AE: Diarrhoea (MAD any dose, n = 24): 1 (4.2) n (%); AE: Eye pain (MAD any dose, n = 24): 1 (4.2) n (%); AE: Haemoptysis (MAD any dose, n = 24): 1 (4.2) n (%); AE: Headache (MAD any dose, n = 24): 1 (4.2) n (%); AE: Psychotic disorder (MAD any dose, n = 24): 1 (4.2) n (%); AE: Rash (MAD any dose, n = 24): 1 (4.2) n (%); AE: Somnolence (MAD any dose, n = 24): 0 n (%); AE: Syncope (MAD any dose, n = 24): 0 n (%); AE: Thermal burn (MAD any dose, n = 24): 1 (4.2) n (%); AE: Throat irritation (MAD any dose, n = 24): 1 (4.2) n (%); AE: Upper respiratory tract infection (MAD any dose, n = 24): 1 (4.2) n (%); Total subjects with an event (MAD any dose, n = 24): 8 (33.3) n (%); Number of AEs reported [1]: 13 AEs; Participants with AEs [1]: 8 participants; AE: Cough [2]: 1 (4.2) n (%); AE: Diarrhea [2]: 1 (4.2) n (%); AE: Dizziness [2]: 0 n (%); AE: Headache/tension headache [2]: 1 (4.2) n (%); AE: Nausea [2]: 0 n (%); AE: Thermal burns [2]: 1 (4.2) n (%); AE: Upper respiratory tract infection [2]: 1 (4.2) n (%); Subjects with AEs [2]: 8 (33.3) n (%)
